Source: US20230127326A1, “C3-SUBSTITUTED 1H-PYRAZOLO[4,3-d]PYRIMIDINE COMPOUNDS AS TOLL-LIKE RECEPTOR 7 (TLR7) AGONISTS” (BRISTOL-MYERS SQUIBB COMPANY, priority 2020, published 2023)

Assays:
CD69 = assay: Induction of CD69 in human whole blood; assay type: cell-based; conditions: 17 hrs at 37° C., y-axis 100% set to 1 uM of resiquimod, average where assay was performed multiple times, read-out: hWB CD69 EC50
Procedure: The induction of Type I interferon (IFN) MX-1 genes and the B-cell activation marker CD69 are downstream events that occur upon activation of the TLR7 pathway. The following is a human whole blood assay that measures their induction in response to a TLR7 agonist.
Heparinized human whole blood was harvested from human subjects and treated with test TLR7 agonist compounds at 1 mM. The blood was diluted with RPMI 1640 media and Echo was used to predot 10 nL per well giving a final concentration of 1 uM (10 nL in 10 uL of blood). After mixing on a shaker for 30 sec, the plates were covered and placed in a 37° C. chamber for o/n=17 hrs. Fixing/lysis buffer was prepared (5×->1× in H2O, warm at 37° C.; Cat #BD 558049) and kept the perm buffer (on ice) for later use.
For surface markers staining (CD69): prepared surface Abs: 0.045 ul hCD14-FITC (ThermoFisher Cat #MHCD1401)+0.6 ul hCD19-ef450 (ThermoFisher Cat #48-0198-42)+1.5 ul hCD69-PE (cat #BD555531)+0.855 ul FACS buffer. Added 3 ul/well, spin 1000 rpm for 1 min and mixed on shaker for 30 sec, put on ice for 30 mins. Stop stimulation after 30 minutes with 70 uL of prewarmed 1× fix/lysis buffer and use Feliex mate to resuspend (15 times, change tips for each plate) and incubate at 37 C for 10 minutes.
Centrifuge at 2000 rpm for 5 minutes aspirate with HCS plate washer, mix on shaker for 30 sec and then wash with 70 uL in dPBS and pelleted 2×s (2000 rpm for 5 min) and 50 ul wash in FACS buffer pelleted 1×s (2000 rpm for 5 min). Mix on shaker for 30 sec. For Intracellular markers staining (MX-1): Add 50 ul of BD Perm buffer III and mix on shaker for 30 sec. Incubate on ice for 30 minutes (in the dark). Wash with 50 uL of FACS buffer 2× (spin @2300 rpm×5 min after perm) followed by mixing on shaker for 30 sec. Resuspended in 20 ul of FACS buffer containing MX1 antibody ( )(4812)-Alexa 647: Novus Biologicals #NBP2-43704AF647) 20 ul FACS bf+0.8 ul hIgG+0.04 ul MX-1. Spin 1000 rpm for 1 min, mix on shaker for 30 se and the samples were incubated at RT in the dark for 45 minutes followed by washing 2×FACS buffer (spin @2300 rpm×5 min after perm). Resuspend 20 ul (35 uL total per well) of FACS buffer and cover with foil and place in 4° C. to read the following day. Plates were read on iQuePlus. The results were loaded into toolset and […] curves are generated in curve master. The y-axis 100% is set to 1 uM of resiquimod.

human TLR7 = target: T1, human TLR7 (Homo sapiens, UniProt Q9NYK1); assay: Human TLR7 agonist activity reporter assay (HEK-Blue TLR7 cells, SEAP reporter); assay type: cell-based; conditions: 18 h treatment, average where assay was performed multiple times, read-out: hTLR7 Agonism EC50
T1 construct: host or cells: HEK-Blue TLR7 cells (engineered human embryonic kidney cells)
T1 sequence (Q9NYK1 27-1049): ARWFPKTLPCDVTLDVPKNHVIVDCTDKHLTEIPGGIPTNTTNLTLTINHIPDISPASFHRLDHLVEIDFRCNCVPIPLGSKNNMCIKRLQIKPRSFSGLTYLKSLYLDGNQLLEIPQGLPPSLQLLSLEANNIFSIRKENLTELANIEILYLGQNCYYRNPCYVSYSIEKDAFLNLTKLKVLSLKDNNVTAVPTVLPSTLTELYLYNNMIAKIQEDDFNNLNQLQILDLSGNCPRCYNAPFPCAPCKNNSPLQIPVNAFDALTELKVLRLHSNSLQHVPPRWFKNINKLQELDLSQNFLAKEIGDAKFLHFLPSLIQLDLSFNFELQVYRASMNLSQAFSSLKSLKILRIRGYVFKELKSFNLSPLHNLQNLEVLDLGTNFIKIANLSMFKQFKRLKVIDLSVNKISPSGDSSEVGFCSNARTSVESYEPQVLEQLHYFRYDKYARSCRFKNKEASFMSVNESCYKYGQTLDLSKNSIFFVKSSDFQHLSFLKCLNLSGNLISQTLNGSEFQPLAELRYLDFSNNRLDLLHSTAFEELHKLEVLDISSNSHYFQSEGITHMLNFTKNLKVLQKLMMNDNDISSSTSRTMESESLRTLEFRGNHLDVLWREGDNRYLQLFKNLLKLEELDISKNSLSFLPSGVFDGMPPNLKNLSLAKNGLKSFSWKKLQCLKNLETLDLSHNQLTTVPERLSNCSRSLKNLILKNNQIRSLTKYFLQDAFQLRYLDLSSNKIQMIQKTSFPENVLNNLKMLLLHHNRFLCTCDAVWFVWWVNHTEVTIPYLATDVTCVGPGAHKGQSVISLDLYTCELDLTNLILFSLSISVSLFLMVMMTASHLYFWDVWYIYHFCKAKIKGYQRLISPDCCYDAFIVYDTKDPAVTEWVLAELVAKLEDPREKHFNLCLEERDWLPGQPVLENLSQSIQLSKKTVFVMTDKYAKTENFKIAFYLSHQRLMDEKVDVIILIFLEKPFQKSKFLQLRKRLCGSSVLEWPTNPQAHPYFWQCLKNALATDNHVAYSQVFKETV
Procedure: This procedure describes a method for assaying human TLR7 (hTLR7) agonist activity of the compounds disclosed in this specification.
HEK-Blue™ TLR7 cells were added to each well of a 384-well tissue-culture plate (15,000 cells per well) and incubated 16-18 h at 37° C., 5% CO2. Compounds (100 nl) were dispensed into wells containing the HEK-Blue™ TLR cells and the treated cells were incubated at 37° C., 5% CO2. After 18 h treatment ten microliters of freshly-prepared Quanti-Blue™ reagent (Invivogen) was added to each well, incubated for 30 min (37° C., 5% CO2) and SEAP levels measured using an Envision plate reader (OD=620 nm). The half maximal effective concentration values (EC50; compound concentration which induced a response halfway between the assay baseline and maximum) were calculated.

**Q.** With `CCCCNc1nc(N)nc2c(F)nn(Cc3ccc(CN4CCN(C)CC4)cc3OC)c12` [Compound 109, N7-butyl-3-fluoro-1-({2-methoxy-4-[(4-methyl-piperazin-1-yl)methyl]-phenyl}methyl)-1H-pyrazolo[4,3-d]pyrimidine-5,7-diamine] as the compound, how does the EC50 (CD69) read?
**A.** Its EC50 is 8.4 nM.

**Q.** And the EC50 (human TLR7)?
**A.** Its EC50 is 12.1 nM.

**Q.** With `CCC[C@@H](CCO)Nc1nc(N)nc2c(F)nn(Cc3ccc(CN[C@H]4COC[C@@H]4O)cc3OC)c12` [Compound 133, (3R,4S)-4-[({4-[(5-amino-3-fluoro-7-{[(3S)-1-hydroxy-hexan-3-yl]amino}-1H-pyrazolo[4,3-d]pyrimidin-1-yl)-methyl]-3-methoxyphenyl}-methyl)amino]oxolan-3-ol] as the compound, how does the EC50 (CD69) read?
**A.** The EC50 was 12.6 nM.

**Q.** And the EC50 (human TLR7)?
**A.** Its EC50 is 47.9 nM.

**Q.** Which EC50 (CD69) does the source give for `CCCCNc1nc(N)nc2c(F)nn(Cc3ccc(CNC4CCOCC4)cc3OC)c12` [Compound 108, N7-butyl-3-fluoro-1-[(2-methoxy-4-{[(oxan-4-yl)amino]methyl}phenyl)-methyl]-1H-pyrazolo[4,3-d]pyrimidine-5,7-diamine] here?
**A.** The EC50 was 87.2 nM.

**Q.** What about the EC50 (human TLR7) of the same compound?
**A.** Its EC50 is 72 nM.

**Q.** What does the source list for `CCCCNc1nc(N)nc2c(F)nn(Cc3ccc(CNC4CCC4)cc3OC)c12` [Compound 107, N7-butyl-1-({4-[(cyclobutylamino)methyl]-2-methoxyphenyl}methyl)-3-fluoro-1H-pyrazolo[4,3-d]pyrimidine-5,7-diamine]?
**A.** EC50 (CD69): 28.4 nM; EC50 (human TLR7): 46.5 nM

**Q.** Which EC50 (CD69) does the source give for `CCCCNc1nc(N)nc2c(C3CC3)nn(Cc3ccc(CNC4CCOCC4)cc3OC)c12` [Compound 102, N7-butyl-3-cyclopropyl-1-[(2-methoxy-4-{[(oxan-4-yl)amino]methyl}phenyl)-methyl]-1H-pyrazolo[4,3-d]pyrimidine-5,7-diamine] here?
**A.** Its EC50 is 34.5 nM.

**Q.** What about the EC50 (human TLR7) of the same compound?
**A.** Its EC50 is 210 nM.

**Q.** With `CCCCNc1nc(N)nc2c(C)nn(Cc3ccc(CN4CCN(C)CC4)cc3OC)c12` [Compound 105, N7-butyl-1-({2-methoxy-4-[(4-methylpiperazin-1-yl)methyl]phenyl}methyl)-3-methyl-1H-pyrazolo[4,3-d]pyrimidine-5,7-diamine] as the compound, how does the EC50 (CD69) read?
**A.** Its EC50 is 9.4 nM.

**Q.** What about the EC50 (human TLR7) of the same compound?
**A.** The EC50 was 62.3 nM.

**Q.** How did the EC50 (CD69) turn out when `CCC[C@@H](CCO)Nc1nc(N)nc2c(F)nn(Cc3ccc(CN[C@@H]4COC[C@H]4O)cc3OC)c12` [Compound 132, (3S,4R)-4-[({4-[(5-amino-3-fluoro-7-{[(3S)-1-hydroxy-hexan-3-yl]amino}-1H-pyrazolo[4,3-d]pyrimidin-1-yl)-methyl]-3-methoxyphenyl}-methyl)amino]oxolan-3-ol] was run?
**A.** The EC50 was 9.3 nM.

**Q.** What about the EC50 (human TLR7) of the same compound?
**A.** The EC50 was 40.4 nM.

**Q.** How did the EC50 (CD69) turn out when `CCCCNc1nc(N)nc2c(CO)nn(Cc3ccc(CN4CC(OC)C4)cc3OC)c12` [Compound 120, [5-amino-7-(butylamino)-1-({2-methoxy-4-[(3-methoxy-azetidin-1-yl)methyl]phenyl}-methyl)-1H-pyrazolo[4,3-d]pyrimidin-3-yl]methanol] was run?
**A.** The EC50 was 199 nM.

**Q.** And the EC50 (human TLR7)?
**A.** The EC50 was 334 nM.

**Q.** For `CCCCNc1nc(N)nc2c(C3=CCOC3)nn(Cc3ccc(CNC4CCOCC4)cc3OC)c12` [Compound 121, N7-butyl-3-(2,5-dihydro-furan-3-yl)-1-[(2-methoxy-4-{[(oxan-4-yl)amino]methyl}-phenyl)methyl]-1H-pyrazolo[4,3-d]pyrimidine-5,7-diamine], which EC50 (CD69) is on record?
**A.** The EC50 was 640 nM.

**Q.** And the EC50 (human TLR7)?
**A.** The EC50 was 1560 nM.

**Q.** Which EC50 (CD69) does the source give for `CCCCNc1nc(N)nc2c(CC)nn(Cc3ccc(CNC4CCOCC4)cc3OC)c12` [Compound 122, N7-butyl-3-ethyl-1-[(2-methoxy-4-{[(oxan-4-yl)amino]methyl}phenyl)-methyl]-1H-pyrazolo[4,3-d]pyrimidine-5,7-diamine] here?
**A.** Its EC50 is 88.7 nM.

**Q.** What about the EC50 (human TLR7) of the same compound?
**A.** Its EC50 is 203 nM.

**Q.** For `CCCCNc1nc(N)nc2c(-c3ccncc3)nn(Cc3ccc(CNC4CCOCC4)cc3OC)c12` [Compound 112, N7-butyl-1-[(2-methoxy-4-{[(oxan-4-yl)amino]-methyl}phenyl)methyl]-3-(pyridin-4-yl)-1H-pyrazolo[4,3-d]pyrimidine-5,7-diamine], which EC50 (CD69) is on record?
**A.** Its EC50 is 1000 nM.

**Q.** What about the EC50 (human TLR7) of the same compound?
**A.** The EC50 was 2430 nM.

**Q.** Which EC50 (CD69) does the source give for `CCCCNc1nc(N)nc2c(-c3cccnc3)nn(Cc3ccc(CNC4CCOCC4)cc3OC)c12` [Compound 114, N7-butyl-1-[(2-methoxy-4-{[(oxan-4-yl)amino]methyl}-phenyl)methyl]-3-(pyridin-3-yl)-1H-pyrazolo[4,3-d]pyrimidine-5,7-diamine] here?
**A.** Its EC50 is 42.7 nM.

**Q.** And the EC50 (human TLR7)?
**A.** The EC50 was 291 nM.

**Q.** `CCC[C@@H](CCO)Nc1nc(N)nc2c(C)nn(Cc3ccc(CN[C@@H]4CCCOC4)cc3OC)c12` [Compound 130, (3S)-3-[(5-amino-1-{[2-methoxy-4-({[(3R)-oxan-3-yl]amino}methyl)phenyl]-methyl}-3-methyl-1H-pyrazolo[4,3-d]pyrimidin-7-yl)amino]hexan-1-ol] was tested. Which EC50 (CD69) did it give?
**A.** Its EC50 is 7.5 nM.

**Q.** What about the EC50 (human TLR7) of the same compound?
**A.** The EC50 was 93.8 nM.

**Q.** `CCC[C@@H](CCO)Nc1nc(N)nc2c(C)nn(Cc3ccc(CNC4CCOCC4)cc3OC)c12` [Compound 127, (3S)-3-({5-amino-1-[(2-methoxy-4-{[(oxan-4-yl)amino]methyl}phenyl)-methyl]-3-methyl-1H-pyrazolo[4,3-d]pyrimidin-7-yl}amino)hexan-1-ol] was tested. Which EC50 (CD69) did it give?
**A.** Its EC50 is 2.7 nM.

**Q.** And the EC50 (human TLR7)?
**A.** The EC50 was 21.8 nM.

**Q.** What does the source list for `CCCCNc1nc(N)nc2c(-c3cc[nH]n3)nn(Cc3ccc(CNC4CCOCC4)cc3OC)c12` [Compound 116, N7-butyl-1-[(2-methoxy-4-{[(oxan-4-yl)amino]methyl}-phenyl)methyl]-3-(1H-pyrazol-3-yl)-1H-pyrazolo[4,3-d]pyrimidine-5,7-diamine]?
**A.** EC50 (CD69): 709 nM; EC50 (human TLR7): 1430 nM

**Q.** How did the EC50 (CD69) turn out when `CCCCNc1nc(N)nc2c(C3CCOC3)nn(Cc3ccc(CNC4CCOCC4)cc3OC)c12` (stereo not shown) [Compound 124, N7-butyl-1-[(2-methoxy-4-{[(oxan-4-yl)amino]methyl}-phenyl)methyl]-3-(oxolan-3-yl)-1H-pyrazolo[4,3-d]pyrimidine-5,7-diamine] was run?
**A.** Its EC50 is 339 nM.

**Q.** And the EC50 (human TLR7)?
**A.** The EC50 was 798 nM.

**Q.** How did the EC50 (CD69) turn out when `CCCCNc1nc(N)nc2c(C)nn(Cc3ncc(CN4CCN(CCO)CC4)cc3OC)c12` [Compound 131, 2-{4-[(6-{[5-amino-7-(butyl-amino)-3-methyl-1H-pyrazolo[4,3-d]pyrimidin-1-yl]methyl}-5-methoxy-pyridin-3-yl)methyl]piperazin-1-yl}ethan-1-ol] was run?
**A.** The EC50 was 41.4 nM.

**Q.** What about the EC50 (human TLR7) of the same compound?
**A.** Its EC50 is 224 nM.
